The source of these data is US8188064B2, “Vitamin D analogs for obesity prevention and treatment” (Wisconsin Alumni Research Foundation, priority 2003, dated 2012).

Data set [1] concerns the target T1, full-length recombinant rat vitamin D receptor (Rattus norvegicus, UniProt P13053).
T1 construct: Full-length recombinant rat receptor was expressed in E. coli; histidine tag (C); made in house; host or cells: E. coli BL21(DE3) Codon Plus RIL
T1 sequence (P13053 1-423): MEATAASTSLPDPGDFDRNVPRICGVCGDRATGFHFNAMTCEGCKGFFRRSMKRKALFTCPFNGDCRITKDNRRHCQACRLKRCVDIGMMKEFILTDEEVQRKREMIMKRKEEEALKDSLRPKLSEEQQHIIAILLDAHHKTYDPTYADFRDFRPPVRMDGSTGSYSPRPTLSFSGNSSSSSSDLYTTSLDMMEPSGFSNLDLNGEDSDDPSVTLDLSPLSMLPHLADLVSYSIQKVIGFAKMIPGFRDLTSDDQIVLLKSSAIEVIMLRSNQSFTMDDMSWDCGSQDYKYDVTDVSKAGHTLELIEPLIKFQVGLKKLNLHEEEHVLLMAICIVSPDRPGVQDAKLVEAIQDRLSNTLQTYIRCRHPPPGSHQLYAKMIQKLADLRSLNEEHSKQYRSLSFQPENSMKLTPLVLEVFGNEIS
The experiment in a line: Vitamin D receptor binding (competition with 3H-1,25(OH)2D3). To be noted: for binding to the vitamin D receptor, compared to 1α,25(OH)2D3: result in words, competition for tritiated hormone binding. Here is the method: Full-length recombinant rat receptor was expressed in E. coli BL21(DE3) Codon Plus RIL cells and purified to homogeneity using two different column chromatography systems. The first system was a nickel affinity resin that utilizes the C-terminal histidine tag on this protein. The protein that was eluted from this resin was further purified using ion exchange chromatography (S-Sepharose Fast Flow). Aliquots of the purified protein were quick frozen in liquid nitrogen and stored at −80° C. until use. For use in binding assays, the protein was diluted in TEDK50 (50 mM Tris, 1.5 mM EDTA, pH 7.4, 5 mM DTT, 150 mM KCl) with 0.1% Chaps detergent. The receptor protein and ligand concentration was optimized such that no more than 20% of the added radiolabeled ligand was bound to the receptor.
Unlabeled ligands were dissolved in ethanol and the concentrations determined using UV spectrophotometry (1,25(OH)2D3: molar extinction coefficient=18,200 and λmax=265 nm; Analogs: molar extinction coefficient=42,000 and λmax=252 nm). Radiolabeled ligand (^3H-1,25(OH)2D3, ˜159 Ci/mmole) was added in ethanol at a final concentration of 1 nM.
Radiolabeled and unlabeled ligands were added to 100 mcl of the diluted protein at a final ethanol concentration of ≦10%, mixed and incubated overnight on ice to reach binding equilibrium. The following day, 100 mcl of hydroxylapatite slurry (50%) was added to each tube and mixed at 10-minute intervals for 30 minutes. The hydroxylapaptite was collected by centrifugation and then washed three times with Tris-EDTA buffer (50 mM Tris, 1.5 mM EDTA, pH 7.4) containing 0.5% Titron X-100. After the final wash, the pellets were transferred to scintillation vials containing 4 ml of Biosafe II scintillation cocktail, mixed and placed in a scintillation counter. Total binding was determined from the tubes containing only radiolabeled ligand.

Data set [2] in a line: Bone calcium mobilization (serum calcium on low calcium diet). It counts as in vivo, rat. The note with it: for bone calcium mobilization activity: result in words, vitamin D deficient rat model, compared to 1α,25(OH)2D3. Here is the method:
(§1) Male, weanling Sprague-Dawley rats were placed on Diet 11 (0.47% Ca) diet+AEK for one week followed by Diet 11 (0.02% Ca)+AEK for 3 weeks. The rats were then switched to a diet containing 0.47% Ca for one week followed by two weeks on a diet containing 0.02% Ca. Dose administration began during the last week on 0.02% calcium diet. Four consecutive ip doses were given approximately 24 hours apart. Twenty-four hours after the last dose, blood was collected from the severed neck and the concentration of serum calcium determined as a measure of bone calcium mobilization. The first 10 cm of the intestine was also collected for intestinal calcium transport analysis using the everted gut sac method.

The test system of data set [3] is parathyroid hormone (PTH). Put plainly: PTH suppression (serum PTH). It counts as in vivo, rat. To be noted: result in words; normal/adult rats. Here is the method: Adult, female Sprague-Dawley rats were obtained from Harlan (Madison, Wis.).
Upon receipt, the animals were identified by individual tail marks. Animals were housed in suspended, stainless steel, wire-bottom cages. Each cage contained one animal. The animal rooms were maintained at a temperature of 68 to 72° F. and a relative humidity of 25 to 75%. The holding rooms were set to provide 12 hours of light per day. Water and a purified rodent diet (Suda et al., Purified Rodent Diet-Diet 11) containing […] 0.3% phosphorus and fat soluble vitamins A, D, E and K were provided ad libitum.
Animals were randomly assigned to treatment groups (5 animals/group). All doses were administered intraperitoneally in 100 microliters of propylene glycol. Four to seven consecutive doses were given approximately 24 hours apart. Dosing was initiated after the animals had been allowed to acclimate for at least one week.
Both control and test articles were administered by intraperitoneal injection in 100 microliters for 4-7 consecutive days spaced approximately 24 hours apart. 1,25(OH)2D3 was given for 4 consecutive days, whereas, the test drugs were given for 7 consecutive days.
Twenty-four hours after the final dose, blood was collected from the tail artery and the concentration of bioactive serum PTH was measured using the rat BioActive Intact PTH ELISA Kit from Immutopics, Inc. (San Clemente, Calif.).

Data set [4] has as its system Human promyelocytic leukemia (HL60) cells. The experiment in a line: HL-60 differentiation (nitro blue tetrazolium reduction). It counts as cell-based. How it is done: The study drugs were dissolved in ethanol and the concentrations determined using UV spectrophotometry. Serial dilutions were prepared so that a range of drug concentrations could be tested without changing the final concentration of ethanol (≦0.2%) present in the cell cultures.
Human promyelocytic leukemia (HL60) cells were grown in RPMI-1640 medium containing 10% fetal bovine serum. The cells were incubated at 37° C. in the presence of 5% CO2.
HL60 cells were plated at 1.2×10^5 cells/ml. Eighteen hours after plating, cells in duplicate were treated with drug. Four days later, the cells were harvested and a nitro blue tetrazolium reduction assay was performed (Collins et al., 1979; J. Exp. Med. 149:969-974). The percentage of differentiated cells was determined by counting a total of 200 cells and recording the number that contained intracellular black-blue formazan deposits. Verification of differentiation to monocytic cells was determined by measuring phagocytic activity (data not shown).

Data set [5] can be described thus: Intestinal calcium transport (everted gut sac). The note with it: result in words, vitamin D deficient rat model, compared to 1α,25(OH)2D3. It counts as in vivo. Here is the method:
as §1

The test system of data set [6] is 24-hydroxylase (24Ohase) gene promoter in ROS 17/2.8 (bone) cells. The experiment in a line: In vitro transcription assay (luciferase reporter). To be noted: for transcriptional activity in bone cells, compared to 1α,25(OH)2D3: result in words. It counts as cell-based. Here is the method:
Transcription activity was measured in ROS 17/2.8 (bone) cells that were stably transfected with a 24-hydroxylase (24Ohase) gene promoter upstream of a luciferase reporter gene (Arbour et al., 1998). Cells were given a range of doses. Sixteen hours after dosing the cells were harvested and luciferase activities were measured using a luminometer. RLU=relative luciferase units.

The subject of data set [7] is 3T3-L1 cells. The experiment in a line: Inhibition of 3T3-L1 differentiation into mature adipocytes (Oil-Red-O staining). It counts as cell-based, murine. To be noted: for inhibition of differentiation of 3T3-L1 cells into mature adipocytes (Oil-Red-O staining): result in words, MDI-treated cells, staining at day 10; for inhibition of differentiation of MDI-treated 3T3-L1 cells (oil-red-O staining): tested at 1×10^−8.5 M. How it is done:
Various 19-nor vitamin D analogs were or are tested and found to inhibit the differentiation of preadipocytes into mature adipocytes, to reduce body fat, to inhibit an increase in PPARγ, C/EBPα, and/or SCD-1 gene transcription and to be useful in treating and preventing obesity both in vivo and in vitro. The undifferentiated preadipocyte 3T3-L1 subline, a derivative of the original mouse fibroblast cell line, is one of the most accepted models for investigating the adipogenesis process and was used for the analysis. Two days after reaching confluence, 3T3-L1 cells can be induced to differentiate into adipocytes (see Mackall, J. C. et al. J. Biol. Chem., 251(20), 6462-6464 (1976)) with the addition of a cAMP phosphodiesterase inhibitor, dexamethasone (a glucocortoid), and insulin. […] The induction of PPARγ and C/EBPα is required for adipocyte differentiation. […] SCD-1 is an enzyme found in adipocytes that converts saturated fatty acids (C16 and C18) to their monounsaturated forms (C16:1 and C18:1). The deposition of triglyceride can also be detected as early as 3 days, and by the 7th to 14th days post-confluence, greater than 80% of the cells in the monolayer stain positively with Oil-red-O.

The subject of data set [8] is SCD-1 mRNA. Put plainly: Inhibition of SCD-1 mRNA induction in 3T3-L1 cells (RT-PCR). It counts as cell-based, murine. To be noted: for inhibition of SCD-1 mRNA induction: result in words, MDI-treated 3T3-L1 cells; for inhibition of SCD1 mRNA induction: tested at 1×10^−8.5 M. The text has this: Chomczynski, P. et al., Anal. […] NO: 4)).
Data set [9] can be described thus: Hypercalcemia / serum calcium analysis. The format is in vivo, rat.

“Also recorded” adds a separate entry of the source.

As to `C=C1[C@H](O)CC(=C/C=C2\CCC[C@]3(C)[C@@H](CCC)CC[C@@H]23)C[C@H]1O` [19,21-dinor, 2-methylene-19,21-dinor-1α-hydroxybishomopregnacalciferol], the “vitamin D receptor binding, times less active than 1α,25-dihydroxyvitamin D3” value in data set [1] (less active than 1α,25-dihydroxyvitamin D3) is reported as “about 5 times”. In addition, the “bone calcium mobilization activity” value in data set [2] is reported as “no calcemic activity”. In addition, in data set [3], the “suppression of parathyroid hormone (PTH)” value is given as “significant activity”. Further, the “differentiation of HL-60 cells, times less active than 1α,25(OH)2D3” value in [4] is “about 15 times”. For the same compound, in data set [5], the “intestinal calcium transport activity” value is listed as “no calcemic activity”. Besides, in [6], the “transcriptional activity in bone cells, compared to 1α,25(OH)2D3” value is reported as “active”.
For the compound `C=C1[C@H](O)CC(=C/C=C2\CCC[C@]3(C)[C@@H](C(C)C)CC[C@@H]23)C[C@H]1O` [2-MP], in data set [1], the “binding to the vitamin D receptor, compared to 1α,25(OH)2D3” value (from here on “binding … compared to 1α,25(OH)2D3”) is given as “as or nearly effective as calcitriol”. Moreover, the “bone calcium mobilization activity” value in data set [2] is on record as “little, if any, activity”. Besides, in data set [7], the “inhibition of differentiation of 3T3-L1 cells into mature adipocytes (Oil-Red-O staining)” value is given as “nearly as potent as the native hormone” and the “inhibition of differentiation of MDI-treated 3T3-L1 cells (oil-red-O staining)” value was “active”. Besides, the “inhibition of differentiation of 3T3-L1 cells into mature adipocytes (Oil-Red-O staining)” value in [7] (listed as 2MP) was “still active”. The “intestinal calcium transport activity” value in data set [5] is “little, if any, activity”. In addition, in data set [8], the “inhibition of SCD-1 mRNA induction” value is on record as “nearly as potent as the native hormone” and the “inhibition of SCD1 mRNA induction” value is given as “active”. In data set [8] (listed as 2MP), the “inhibition of SCD-1 mRNA induction” value is reported as “still active”. The “increase in serum calcium” value in data set [9] (normal vitamin D sufficient rats, very high oral doses) is “without producing an increase in serum calcium”.
Regarding `C=C1[C@H](O)CC(=C/C=C2\CCC[C@]3(C)[C@@H]([C@@H](C)CCC)CC[C@@H]23)C[C@H]1O` [2MtrisP], the “binding … compared to 1α,25(OH)2D3” value in [1] is on record as “almost equal to the native hormone; also recorded: as or nearly effective as calcitriol”. Also, the “bone calcium mobilization activity” value in [2] was “very little bone calcium mobilization activity”. The “bone calcium mobilizing activity” value in [2] (very high dose of 2340 pmol/day) is reported as “little bone calcium mobilizing activity”. Further, the “suppression of parathyroid hormone (PTH)” value in [3] is given as “remarkably effective”. The “inhibition of differentiation of 3T3-L1 cells into mature adipocytes (Oil-Red-O staining)” value in data set [7] was “increased slightly”; in [7] (listed as (20S)2M-trisP) it was “still possess activity”. Besides, the “differentiation of HL-60 cells, compared to 1α,25(OH)2D3” value in data set [4] (result in words) is “equal in activity”. Further, the “intestinal calcium transport activity” value in data set [5] is “some ability to elevate intestinal calcium transport; also recorded: less activity”. Besides, the “inhibition of SCD-1 mRNA induction” value was “increased slightly” in [8] and “still possess activity” in data set [8] (listed as (20S)2M-trisP). Moreover, the “transcriptional activity in bone cells, compared to 1α,25(OH)2D3” value in [6] was “within one order of magnitude”. Also, the serum calcium concentrations result in data set [9] (adult rats, PTH suppression study) is “not raising serum calcium concentrations”.
`C=C1[C@H](O)CC(=C/C=C2\CCC[C@]3(C)[C@@H]([C@H](C)CC)CC[C@@H]23)C[C@H]1O` [(20R)2MbisP]: the “binding … compared to 1α,25(OH)2D3” value in data set [1] is given as “approximately equally effective”. Besides, the “bone calcium mobilization activity” value is “does not support” in data set [2] and “very little bone calcium mobilization activity” in [2] (listed as (20R)2-MbisP). Further, the “suppression of parathyroid hormone (PTH)” value in [3] is reported as “considerable activity”. The “inhibition of differentiation of 3T3-L1 cells into mature adipocytes (Oil-Red-O staining)” value in data set [7] is given as “nearly equipotent”. Moreover, in data set [7], the “inhibition of differentiation of MDI-treated 3T3-L1 cells (oil-red-O staining)” value is “active”. The “differentiation of HL-60 cells, times less active than 1α,25(OH)2D3” value in [4] is given as “about 5 times”. Also, the “intestinal calcium transport activity” value in [5] was “does not support”; in data set [5] (listed as (20R)2-MbisP), “less activity”. The “inhibition of SCD1 mRNA induction” value in data set [8] is reported as “active”. The “transcription of reporter gene coupled to the CYP-24 promoter, times less active than 1α,25-(OH)2D3” value in data set [6] (less active than 1α,25-(OH)2D3) is reported as “about 5 times”. Also, the “hypercalcemia in adult rats” value in data set [9] (doses as high as 45 nmol/day) was “failed to cause hypercalcemia”.
